Source: US4438120A, “Pyridoindolobenzodiazepine tranquilizers” (E. I. Du Pont de Nemours & Company, priority 1982, dated 1984)

Test system: Conditioned Avoidance Response (CAR)
Assay: Conditioned Avoidance Response (CAR) test in mice, oral
Type: in vivo, mouse (female white mice)
Conditions: female white mice, moving average method
Procedure: The paradigm used for predicting tranquilizer activity was a Conditioned Avoidance Response (CAR) test in mice. Female white mice, 19-23 g, were used. The apparatus modified from Bovet, D. et al., Science, 163, 139-149 (1969), was a one-way shuttlebox with 0.4 mA scrambled electric footshock as unconditioned stimulus (US) and a 6 watt white light plus a relay buzzer as conditioned stimuli (CS). Mice were conditioned by three sets of 1-5 trials on day 1, then were fasted for 17-21 hours. The conditioned mice were tested for retention of the conditioned response on day 2, and then were dosed orally with test drug at doses such as 0, 1, 3, 9, 27 and 81 mg/kg. ED50 values (doses at which 50% of the animals would be expected to show response failure) were calculated by the moving average method [Thompson, W. R., Bact. Rev., 11, 115 (1947)].

SMILES	Mouse CAR ED50 (avoidance ED50, dose at which 50% of the animals would be expected to show response failure)
Clc1ccc2c(c1)CNc1cccc3c4c(n-2c13)CCNC4 [Example 61]	34 mg/kg
CN1Cc2ccccc2-n2c3c(c4cc(C(F)(F)F)cc1c42)CNCC3 [Example 62]	> 81 mg/kg
Clc1cc2c3c(c1)c1c(n3-c3ccccc3CN2)CCN(CC2CCCCC2)C1 [Example 68, 6-Chloro-3-cyclohexylmethyl-1,2,3,4,8,9-hexahydropyrido[4',3':2,3]indolo[1,7-ab][1,4]benzodiazepine]	7.1 mg/kg
Clc1ccc2c(c1)CNc1cccc3c4c(n-2c13)CCN(CCc1ccccc1)C4 [Example 69]	27 mg/kg
